Experimental data as given in US20230139835A1, “ALLULOSE IN CRYSTALLINE FORM” (SAVANNA INGREDIENTS GMBH, priority 2020, published 2023).

Assays:
[1] = Particle size distribution by dynamic image analysis (Camsizer X2 with X-Jet module); type: physicochemical
Method: Said preferred particle size distribution is determined by means of dynamic image analysis (Camsizer X2 from Retsch with X-Jet module), wherein a dispersion pressure of 5, 20, or 460 kPa was applied. The evaluation was carried out in three size models, namely:
Xc(min) Particle width which is determined from the narrowest of all measured chords xc;
XFe(max) Particle length which is determined from the longest of all measured Feret diameters xFe;
Xarea Equivalent particle diameter which corresponds to the circle equivalent diameter.

[2] = cited from earlier work

O=C(CO)C(O)C(O)C(O)CO (stereo not shown) [Comparative Example V1, allulose]
Minimum d10 XFe(max) ([1]; dispersion pressure 5 kPa): 90 μm
Minimum d10 Xarea ([1]; dispersion pressure 5 kPa): 75 μm
Minimum d10 Xc(min) ([1]; dispersion pressure 5 kPa): 60 μm
Minimum d50 XFe(max) ([1]; dispersion pressure 5 kPa): 210 μm
Minimum d50 Xarea ([1]; dispersion pressure 5 kPa): 175 μm
Minimum d50 Xc(min) ([1]; dispersion pressure 5 kPa): 130 μm
Minimum d90 XFe(max) ([1]; dispersion pressure 5 kPa): 320 μm
Minimum d90 Xarea ([1]; dispersion pressure 5 kPa): 255 μm
Minimum d90 Xc(min) ([1]; dispersion pressure 5 kPa): 215 μm
Minimum d10 XFe(max) ([1]; dispersion pressure 20 kPa): 60 μm
Minimum d10 Xarea ([1]; dispersion pressure 20 kPa): 50 μm
Minimum d10 Xc(min) ([1]; dispersion pressure 20 kPa): 40 μm
Minimum d50 XFe(max) ([1]; dispersion pressure 20 kPa): 185 μm
Minimum d50 Xarea ([1]; dispersion pressure 20 kPa): 170 μm
Minimum d50 Xc(min) ([1]; dispersion pressure 20 kPa): 110 μm
Minimum d90 XFe(max) ([1]; dispersion pressure 20 kPa): 315 μm
Minimum d90 Xarea ([1]; dispersion pressure 20 kPa): 250 μm
Minimum d90 Xc(min) ([1]; dispersion pressure 20 kPa): 210 μm
Minimum d10 XFe(max) ([1]; dispersion pressure 460 kPa): 1 μm
Minimum d10 Xarea ([1]; dispersion pressure 460 kPa): 2 μm
Minimum d10 Xc(min) ([1]; dispersion pressure 460 kPa): 2 μm
Minimum d50 XFe(max) ([1]; dispersion pressure 460 kPa): 55 μm
Minimum d50 Xarea ([1]; dispersion pressure 460 kPa): 40 μm
Minimum d50 Xc(min) ([1]; dispersion pressure 460 kPa): 30 μm
Minimum d90 XFe(max) ([1]; dispersion pressure 460 kPa): 150 μm
Minimum d90 Xarea ([1]; dispersion pressure 460 kPa): 110 μm
Minimum d90 Xc(min) ([1]; dispersion pressure 460 kPa): 110 μm

O=C(CO)C(O)C(O)C(O)CO (stereo not shown) [Example 1, allulose]
Minimum d10 XFe(max) ([1]; dispersion pressure 5 kPa): 105 μm
Minimum d10 Xarea ([1]; dispersion pressure 5 kPa): 90 μm
Minimum d10 Xc(min) ([1]; dispersion pressure 5 kPa): 72 μm
Minimum d50 XFe(max) ([1]; dispersion pressure 5 kPa): 230 μm
Minimum d50 Xarea ([1]; dispersion pressure 5 kPa): 190 μm
Minimum d50 Xc(min) ([1]; dispersion pressure 5 kPa): 150 μm
Minimum d90 XFe(max) ([1]; dispersion pressure 5 kPa): 350 μm
Minimum d90 Xarea ([1]; dispersion pressure 5 kPa): 270 μm
Minimum d90 Xc(min) ([1]; dispersion pressure 5 kPa): 235 μm
Minimum d10 XFe(max) ([1]; dispersion pressure 20 kPa): 75 μm
Minimum d10 Xarea ([1]; dispersion pressure 20 kPa): 75 μm
Minimum d10 Xc(min) ([1]; dispersion pressure 20 kPa): 55 μm
Minimum d50 XFe(max) ([1]; dispersion pressure 20 kPa): 220 μm
Minimum d50 Xarea ([1]; dispersion pressure 20 kPa): 195 μm
Minimum d50 Xc(min) ([1]; dispersion pressure 20 kPa): 125 μm
Minimum d90 XFe(max) ([1]; dispersion pressure 20 kPa): 335 μm
Minimum d90 Xarea ([1]; dispersion pressure 20 kPa): 280 μm
Minimum d90 Xc(min) ([1]; dispersion pressure 20 kPa): 225 μm
Minimum d10 XFe(max) ([1]; dispersion pressure 460 kPa): 10 μm
Minimum d10 Xarea ([1]; dispersion pressure 460 kPa): 12 μm
Minimum d10 Xc(min) ([1]; dispersion pressure 460 kPa): 12 μm
Minimum d50 XFe(max) ([1]; dispersion pressure 460 kPa): 70 μm
Minimum d50 Xarea ([1]; dispersion pressure 460 kPa): 55 μm
Minimum d50 Xc(min) ([1]; dispersion pressure 460 kPa): 45 μm
Minimum d90 XFe(max) ([1]; dispersion pressure 460 kPa): 175 μm
Minimum d90 Xarea ([1]; dispersion pressure 460 kPa): 135 μm
Minimum d90 Xc(min) ([1]; dispersion pressure 460 kPa): 135 μm

C=C1C[C@@]23CC[C@H]4[C@@](C)(CCC[C@@]4(C)C(=O)O[C@@H]4O[C@H](CO)[C@@H](O)[C@H](O)[C@H]4O)[C@@H]2CC[C@]1(O[C@@H]1O[C@H](CO)[C@@H](O)[C@H](O)[C@H]1O[C@@H]1O[C@H](CO)[C@@H](O)[C@H](O)[C@H]1O)C3 [stevioside]
Daily intake considered harmless [2]: up to 4 mg per kilogram of body weight
